# Literature values, collected in patent publication US20220401366A1, “LONG ACTING NMDA ANTAGONISTS” (Consegna Pharma, Inc., priority 2019, published 2022).
# Settings: S-ketamine versus R-ketamine
smiles,measurement,value
CN[C@]1(c2ccccc2Cl)CCCCC1=O [S-ketamine],potency relative to R-ketamine,twice as potent as R-ketamine
